Assay results published in patent US6127357A, “N-((phenyl, benzodioxinyl or N-heteroarylpiperazinyl)alkyl)-N-(N-heteroaryl)substituted carboxamides” (John Wyeth & Brother, Ltd., priority 1991, dated 2000).

Experiments:
[1] = target: T1, 5-HT1A receptor (Rattus norvegicus, UniProt P19327); assay: 5-HT1A receptor binding activity in rat hippocampal membrane homogenate
T1 construct: rat hippocampal membrane homogenate; from tissue; host or cells: rat hippocampus membrane homogenate
T1 sequence (P19327 1-422): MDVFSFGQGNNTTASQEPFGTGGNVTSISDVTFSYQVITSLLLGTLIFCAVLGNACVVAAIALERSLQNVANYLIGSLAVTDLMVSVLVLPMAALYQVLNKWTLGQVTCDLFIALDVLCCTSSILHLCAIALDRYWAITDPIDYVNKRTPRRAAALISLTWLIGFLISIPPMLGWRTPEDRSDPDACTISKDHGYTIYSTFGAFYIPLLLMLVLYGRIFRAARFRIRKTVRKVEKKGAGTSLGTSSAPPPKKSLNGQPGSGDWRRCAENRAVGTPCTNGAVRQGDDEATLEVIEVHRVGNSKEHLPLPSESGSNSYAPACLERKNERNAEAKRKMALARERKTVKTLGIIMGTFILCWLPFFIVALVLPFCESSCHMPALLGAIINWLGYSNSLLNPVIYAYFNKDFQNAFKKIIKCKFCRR
Method: The compounds of the invention were tested for 5-HT1A receptor binding activity in rat hippocampal membrane homogenate by the method of B S Alexander and M D Wood, J Pharm Pharmacol, 1988, 40, 888-891.

[2] = target: T2, 5-HT1A receptor (Cavia porcellus, UniProt A0A286Y074); assay: 5-HT1A receptor antagonism: antagonism of 5-carboxamidotryptamine in the guinea-pig ileum in vitro
T2 construct: guinea-pig ileum in vitro; from tissue; host or cells: guinea-pig ileum
T2 sequence (A0A286Y074 1-421): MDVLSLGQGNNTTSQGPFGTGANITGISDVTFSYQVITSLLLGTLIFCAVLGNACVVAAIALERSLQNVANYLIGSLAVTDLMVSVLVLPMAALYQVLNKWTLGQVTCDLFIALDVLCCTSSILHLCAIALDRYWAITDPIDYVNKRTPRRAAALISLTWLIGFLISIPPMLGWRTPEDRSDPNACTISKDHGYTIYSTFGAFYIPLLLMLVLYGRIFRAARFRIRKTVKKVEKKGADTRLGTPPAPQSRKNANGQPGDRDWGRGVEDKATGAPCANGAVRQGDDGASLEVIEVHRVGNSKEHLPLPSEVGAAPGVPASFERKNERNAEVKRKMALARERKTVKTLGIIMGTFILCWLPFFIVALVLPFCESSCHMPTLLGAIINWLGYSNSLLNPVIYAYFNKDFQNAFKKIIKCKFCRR
Method: The compounds are tested for 5-HT1A receptor antagonism activity in a test involving the antagonism of 5-carboxamidotryptamine in the guinea-pig ileum in vitro (based upon the procedure of Fozard et al, Br J Pharmac, 1985, 86, 601P).

IC50 [1]	Kb ([2]; read-out: pA2, 5-HT1A receptor antagonism (converted))	pA2, 5-HT1A receptor antagonism [2]	SMILES
5.8 nM	15.8 nM		COc1ccccc1N1CCN(CCN(C(=O)NC2CCCCC2)c2ccccn2)CC1 [Example 4, N-Cyclohexyl-N-(2-(1-(4-(2-methoxyphenyl)piperazinyl))ethyl)-N-(2-pyridinyl)urea]
3 nM		9.8	O=C(C1CCCCC1)N(CCN1CCN(c2cccc3c2OCCO3)CC1)c1ccccn1 [Example 17, N-(2-(1-(4-(2,3-Dihydro-1,4-benzodioxin-5-yl)piperazinyl))ethyl)-N-(2-pyridinyl)cyclohexanecarboxamide]
